Test results published in patent US5703050A (Hoechst Aktiengesellschaft, priority 1993, dated 1997).
Where two headings read alike, the source gives them in different places.

Legend:
[1] = target: T1, fibrinogen receptor (glycoprotein IIb/IIIa) (Homo sapiens, UniProt P05106+P08514); assay: Inhibition of binding of 125I-fibrinogen to its receptor on intact, gel-filtered human platelets; conditions: inhibition of 125I-fibrinogen binding after stimulation with ADP (10 μM), read-out: Ki (μM), ADP-stimulated
T1 construct: its receptor (glycoprotein IIb/IIIa) on intact, gel-filtered human platelets; endogenous in cells; host or cells: gel-filtered platelets from human donor blood, stimulated with ADP (10 uM)
T1 sequence (P08514 32-887 limits assumed): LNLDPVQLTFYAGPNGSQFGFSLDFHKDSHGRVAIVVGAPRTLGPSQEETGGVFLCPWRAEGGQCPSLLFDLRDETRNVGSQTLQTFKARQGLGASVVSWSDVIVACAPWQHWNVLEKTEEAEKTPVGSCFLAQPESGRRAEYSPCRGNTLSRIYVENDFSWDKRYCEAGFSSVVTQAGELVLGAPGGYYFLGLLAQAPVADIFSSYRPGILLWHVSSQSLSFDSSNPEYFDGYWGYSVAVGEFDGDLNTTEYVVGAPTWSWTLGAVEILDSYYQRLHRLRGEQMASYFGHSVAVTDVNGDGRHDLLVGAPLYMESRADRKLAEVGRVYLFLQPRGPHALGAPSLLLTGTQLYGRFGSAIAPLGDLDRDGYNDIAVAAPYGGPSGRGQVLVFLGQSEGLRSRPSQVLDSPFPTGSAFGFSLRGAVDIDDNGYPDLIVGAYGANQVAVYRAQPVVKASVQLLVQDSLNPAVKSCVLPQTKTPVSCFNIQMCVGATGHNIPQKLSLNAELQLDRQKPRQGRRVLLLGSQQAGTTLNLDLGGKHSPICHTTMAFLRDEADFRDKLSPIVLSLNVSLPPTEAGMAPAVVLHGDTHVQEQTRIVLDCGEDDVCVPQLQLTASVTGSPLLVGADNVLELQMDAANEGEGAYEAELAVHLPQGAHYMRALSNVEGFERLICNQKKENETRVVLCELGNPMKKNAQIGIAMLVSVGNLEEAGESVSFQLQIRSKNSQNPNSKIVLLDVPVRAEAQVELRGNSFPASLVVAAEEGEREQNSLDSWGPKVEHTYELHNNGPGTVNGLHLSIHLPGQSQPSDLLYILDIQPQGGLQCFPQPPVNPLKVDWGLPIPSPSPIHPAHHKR
T1 sequence (P08514 891-1039 limits assumed): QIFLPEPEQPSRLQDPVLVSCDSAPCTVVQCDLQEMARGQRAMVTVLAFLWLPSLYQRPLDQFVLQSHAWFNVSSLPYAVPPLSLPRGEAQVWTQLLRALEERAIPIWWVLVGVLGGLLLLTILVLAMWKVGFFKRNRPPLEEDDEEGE
T1 sequence (P05106 27-788): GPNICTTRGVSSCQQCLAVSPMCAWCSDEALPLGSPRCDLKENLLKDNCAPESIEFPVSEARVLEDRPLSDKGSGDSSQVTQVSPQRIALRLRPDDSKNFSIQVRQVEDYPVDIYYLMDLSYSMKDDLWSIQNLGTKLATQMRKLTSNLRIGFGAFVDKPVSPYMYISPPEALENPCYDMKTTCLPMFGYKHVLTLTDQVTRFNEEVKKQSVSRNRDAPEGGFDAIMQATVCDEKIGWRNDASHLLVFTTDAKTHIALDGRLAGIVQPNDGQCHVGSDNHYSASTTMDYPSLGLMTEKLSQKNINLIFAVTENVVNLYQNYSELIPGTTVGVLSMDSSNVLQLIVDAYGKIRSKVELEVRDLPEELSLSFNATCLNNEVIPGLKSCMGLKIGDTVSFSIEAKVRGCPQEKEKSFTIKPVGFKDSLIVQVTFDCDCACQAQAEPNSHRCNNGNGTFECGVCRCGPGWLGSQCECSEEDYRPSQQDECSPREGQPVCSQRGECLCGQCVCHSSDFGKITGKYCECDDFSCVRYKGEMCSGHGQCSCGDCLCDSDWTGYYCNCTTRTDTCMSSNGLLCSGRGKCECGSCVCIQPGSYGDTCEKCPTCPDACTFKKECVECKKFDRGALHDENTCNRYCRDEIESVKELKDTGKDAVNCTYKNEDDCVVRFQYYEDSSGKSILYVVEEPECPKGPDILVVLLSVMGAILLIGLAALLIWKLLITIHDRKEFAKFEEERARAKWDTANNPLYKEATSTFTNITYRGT
Protocol: (§1) The compounds are tested in particular for their inhibitory effect on blood platelet aggregation and the adhesion of fibrinogen to blood platelets. Gel-filtered blood platelets from human donor blood are used, which are activated with ADP or thrombin.
The inhibition of the binding of fibrinogen to its receptor (glycoprotein IIb/IIIa) on intact, gel-filtered human platelets by the compounds according to the invention is tested. The Ki value of the inhibition of binding of 125I-fibrinogen after stimulation with ADP (10 μM) is indicated. (Reference: J. S. Bennett and G. Vilaire, J. Clin. Invest. 64 (1979) 1393-1401; E. Kornecki et al., J. Biol. Chem. 256 (1981), 5695-5701; G. A. Marguerie et al., J. Biol. Chem. 254 (1979) 5357-5363; G. A. Marguerie et al., J. Biol. Chem. 255 (1980) 154-161.)

[2] = tested on: gel-filtered human platelets; assay: Inhibition of the aggregation of gel-filtered human platelets after ADP or thrombin stimulation; type: cell-based; conditions: platelet aggregation
Protocol: as §1
As a functional test, the inhibition of the aggregation of gel-filtered human platelets is measured after ADP or thrombin stimulation by the compounds according to the invention. The IC50 value of the inhibition is indicated (reference: G. A. Marguerie et al., J. Biol. Chem. 254 (1979), 5357-5363).

[3] = ADP stimulation, read-out: ADP-stimulated IC50
[4] = thrombin stimulation, read-out: thrombin-stimulated IC50

Compound | IC50 [2, 3] [nM] | IC50 [2, 4] [nM] | Ki [1] [µM]
N=C(N)c1ccc(NC(=O)NCC(=O)N[C@@H](CC(=O)O)C(=O)N[C@H](C(=O)O)c2ccccc2)cc1 [Example 1] | 150 | 100 | 0.03
(3-(4-(Aminoiminomethyl)phenyl)ureido)acetyl-L-aspartyl-L-phenylglycine methyl ester trifluoroaetate [Example 6] | 750 | 300 | –
3-((3-(4-(Aminoiminomethyl)phenyl)ureido)acetylamino)-3-phenyl-propionic acid [Example 7] | 3000 | 1500 | –

Second part, led by results:

IC50 [2, 3] [nM] | IC50 [2, 4] [nM] | Compound | Ki [1] [µM]
2000 | 2000 | (3-(4-(Aminoiminomethyl)phenyl)ureido)acetyl-L-aspartylbenzylamide [Example 8] | –
8500 | 3000 | 3-(3-(3-Aminopropyl)ureido)benzoyl-L-aspartyl-L-phenylglycine [Example 10] | –
